For this assay, the target named is Beta-secretase 1 (Homo sapiens, UniProt P56817). Briefly: Enzyme Inhibition Measurements. Conditions: pH 4.5; 37 °C.

SMILES strings stand for the structures.

Chain of Beta-secretase 1 (P56817 whole entry): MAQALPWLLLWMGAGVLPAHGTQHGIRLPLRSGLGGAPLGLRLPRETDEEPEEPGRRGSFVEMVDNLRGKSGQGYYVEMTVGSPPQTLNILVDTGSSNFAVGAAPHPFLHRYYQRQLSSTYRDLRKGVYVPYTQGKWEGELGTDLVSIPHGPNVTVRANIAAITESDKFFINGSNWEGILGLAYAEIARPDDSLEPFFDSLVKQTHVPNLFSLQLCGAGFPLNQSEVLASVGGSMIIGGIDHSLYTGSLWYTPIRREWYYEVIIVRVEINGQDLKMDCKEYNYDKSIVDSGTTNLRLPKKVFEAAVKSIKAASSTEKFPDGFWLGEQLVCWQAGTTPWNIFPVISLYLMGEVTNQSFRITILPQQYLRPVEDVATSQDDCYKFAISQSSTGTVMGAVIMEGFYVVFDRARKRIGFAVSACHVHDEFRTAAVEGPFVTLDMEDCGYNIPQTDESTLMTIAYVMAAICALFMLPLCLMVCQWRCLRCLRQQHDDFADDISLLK
Method: Enzyme activities were assayed by monitoring the hydrolysis of substrate in the presence or absence of inhibitor compounds. The hydrolysis was recorded as the increase in fluorescence intensity over a 10 min time period. […] The Ki was calculated by using Ki = IC50/ (1 + [S]/Km), and a Km value determined according to Michaelis-Menten.

For orientation: Ki means the dissociation constant of the complex between target and ligand, obtained from inhibition or displacement. Higher therefore signals lower affinity. `CC(C)C[C@H](NC(=O)[C@H](CC(N)=O)NC(=O)[C@@H](N)C(C)C)[C@@H](O)C[C@@H](C)C(=O)N[C@@H](C)C(=O)N[C@@H](CCC(=O)O)C(=O)N[C@@H](Cc1ccccc1)C(=O)O` [Val-Asn-LeuAla-Ala-Glu-Phe] yielded a Ki of 36 nM.

Values taken from BindingDB's records for doi:10.1021/jm0101803 (University of Illinois At Chicago, 2001).
